pKd: −log10 of the molar value. Read-outs that look alike come from different tables or passages of the source.
How the values were obtained:
LlpABW [1] = target: T1, LlpABW (Pseudomonas putida, UniProt Q8GEJ9); assay: ITC; assay type: binding
T1 construct: gene llpA; full-length, N-terminal His6 tag (pET28a, pCMPG6056), E. coli BL21(DE3); no signal peptide; N-domain Arg4-Pro135, C-domain Ala136-Gln253, hairpin Pro254-His275

LlpABW [2] = target: T2, LlpABW (Pseudomonas putida, UniProt Q8GEJ9, V208Y); assay: ITC; assay type: binding
T2 construct: gene llpA; full-length, N-terminal His6 tag (pET28a, pCMPG6056), E. coli BL21(DE3); no signal peptide; N-domain Arg4-Pro135, C-domain Ala136-Gln253, hairpin Pro254-His275
T2 sequence (Q8GEJ9 1-276, stated change not applied): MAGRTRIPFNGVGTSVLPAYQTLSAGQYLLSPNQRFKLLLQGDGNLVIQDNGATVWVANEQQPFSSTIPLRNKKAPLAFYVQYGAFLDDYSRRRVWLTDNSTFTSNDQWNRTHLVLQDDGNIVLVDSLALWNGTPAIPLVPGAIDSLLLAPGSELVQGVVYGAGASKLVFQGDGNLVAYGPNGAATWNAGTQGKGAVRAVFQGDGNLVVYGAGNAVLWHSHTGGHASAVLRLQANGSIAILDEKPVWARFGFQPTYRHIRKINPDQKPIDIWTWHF

[3] = bis-TRIS propane 20 mM, 200 mM NaCl, pH 7.0, 25°C, single-site fit n = 1, site III^C

T1 sequence (Q8GEJ9 1-276): as the sequence (Q8GEJ9 1-276, stated change not applied) above

Compound: OC[C@H]1O[C@H](O[C@@H]2C(O)O[C@H](CO)[C@@H](O)[C@@H]2O)[C@@H](O)[C@@H](O)[C@@H]1O (some centres unmarked) [Manα(1–2)Man]
- pKd (LlpABW [1]; [3]): 1.37

Compound: OC[C@H]1O[C@H](OC[C@H]2OC(O)[C@@H](O)[C@@H](O)[C@@H]2O)[C@@H](O)[C@@H](O)[C@@H]1O (some centres unmarked) [Manα(1–6)Man]
- pKd (LlpABW [1]; [3]): 1.76

Compound: CC(=O)N[C@H]1[C@H](O[C@@H]2[C@@H](OC[C@H]3OC(O)[C@@H](O)[C@@H](O[C@H]4O[C@H](CO)[C@@H](O)[C@H](O)[C@@H]4O[C@@H]4O[C@H](CO)[C@@H](O)[C@H](O)[C@H]4NC(C)=O)[C@@H]3O)O[C@H](CO)[C@@H](O)[C@@H]2O)O[C@H](CO)[C@@H](O)[C@@H]1O (some centres unmarked) [GlcNAcβ(1–2)Manα(1–3)[GlcNAcβ(1–2)Manα(1–6)]Man]
- pKd (LlpABW [1]; [3]): 2.68

Compound: OC[C@H]1O[C@H](O[C@H]2[C@H](O)[C@@H](CO)OC(O)[C@H]2O)[C@@H](O)[C@@H](O)[C@@H]1O (some centres unmarked) [Manα(1–3)Man]
- pKd (LlpABW [1]; [3]): 1.74
- pKd (LlpABW [2]; [3]): 1.64

Compound: OC[C@H]1O[C@H](OC[C@H]2OC(O)[C@@H](O)[C@@H](O[C@H]3O[C@H](CO)[C@@H](O)[C@H](O)[C@@H]3O)[C@@H]2O)[C@@H](O)[C@@H](O)[C@@H]1O (some centres unmarked) [Manα(1–3)[Manα(1–6)]Man]
- pKd (LlpABW [1]; [3]): 2.00

Compound: CO[C@H]1O[C@H](CO)[C@@H](O)[C@H](O)[C@@H]1O [methyl-α-D-mannopyranoside]
- pKd (LlpABW [1]; read-out: Kd): 1.34
- pKd (LlpABW [2]; read-out: Kd): 1.23

Reference: PMC3585409, “Structural Determinants for Activity and Specificity of the Bacterial Toxin LlpA” (PLoS Pathogens, 2013)
